Reference: US12728149B2, “Pharmaceutical composition for preventing and treating depression, comprising herbal medicine complex extracts of Zizyphi spinosi Semen, Jujubae Fructus, Hordei Fructus Germinatus, Glycyrrhizae Radix et Rhizoma, Angelicae Gigantis Radix, and Beta vulgaris as active ingredients” (INDUSTRY-ACADEMIC COORPERATION FOUNDATION DAEGU HAANY …, priority 2023, dated 2026)

Assays:
mice [1] = assay: Tail suspension test (TST); format: in vivo
Method: (§1) All animal experiment procedures of the present disclosure were conducted in compliance with the preliminary review and ethics regulations of the Animal Experiment Ethics Committee of Daegu Haany University. 4-week-old male ICR mice (SPF/VAF CrljBgi:CD-1) were supplied from the Daehan Biolink (Chungcheongbuk-do, Korea), and adapted and used for 7 days in the pharmacology animal laboratory of Daegu Haany University. Each group consisted of 8 mice, and 5 mice were housed in polycarbonate mice cages and bred in a breeding room where a temperature of 23±1° C., humidity of 50±5%, and lighting time of 07:00 to 19:00 (12-hour cycle) were kept constant. During the adaptation period, feed and water were supplied without restrictions. […]
(§2) In order to verify whether there was an antidepressant effect of the herbal medicine complex extracts of Zizyphi spinosi Semen, Jujubae Fructus, Hordei Fructus Germinatus, Glycyrrhizae Radix et Rhizoma, Angelicae Gigantis Radix, and Beta vulgaris of the present disclosure, a tail suspension test (TST) was performed using experimental animals. The antidepressant effect was determined by measuring the immobility time during the tail suspension test, and experimental animals with tails alternated mobility and immobility, and the shorter the immobility time, there was the antidepressant effect. […]

mice [2] = assay: Forced swimming test (FST); format: in vivo
Method: as §1
as §2, with “a forced swimming” for “a tail suspension”, “test (FST)” for “test (TST)”, “the forced swimming” for “the tail suspension”, “and it was meant that” for “and experimental animals with tails alternated mobility and immobility, and the”, “time, the greater” for “time, there was”

[3] = imipramine 15 mg/kg intraperitoneally

SMILES: CN(C)CCCN1c2ccccc2CCc2ccccc21 [Imipramine, imipramine]
- immobility time compared to the control group (mice [1]; [3]): decreased
- Immobility time (mice [1]; measured for 10 minutes, imipramine 15 mg/kg intraperitoneally for 1 week): 157.82 ± 11.02 s
- immobility time compared to the control group (mice [2]; [3]): reduced
- Immobility time (mice [2]; measured for 4 minutes, imipramine 15 mg/kg intraperitoneally for 1 week, test 30 minutes after administration on day 7): 177.01 ± 5.67 s
